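The compound was tested at five concentrations on cells cultured in 96-well plates, with a 48-hour exposure period. GI50 marks 50% less growth.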 Active and inactive are the calls of the source. Rule as the data show it: active = GI50 up to about 1.1 µM and inactive = higher.
Experiments:
Assay in all cases: NCI-60 cell line screen, 48 h
MOLT-4 = system: MOLT-4
CCRF-CEM = system: CCRF-CEM
786-0 = system: 786-0
NCI/ADR-RES = system: NCI/ADR-RES
EKVX = system: EKVX
K562 = system: K562
SK-MEL-2 = system: SK-MEL-2
ACHN = system: ACHN
KM12 = system: KM12
LOX IMVI = system: LOX IMVI
SN12C = system: SN12C
SF-539 = system: SF-539
PC-3 = system: PC-3
SR = system: SR
HOP-62 = system: HOP-62
UO-31 = system: UO-31
OVCAR-5 = system: OVCAR-5
RPMI-8226 = system: RPMI-8226
UACC-257 = system: UACC-257
NCI-H23 = system: NCI-H23
SK-OV-3 = system: SK-OV-3
HCT-15 = system: HCT-15
A498 = system: A498
RXF 393 = system: RXF 393
SK-MEL-28 = system: SK-MEL-28
NCI-H460 = system: NCI-H460
Hs-578T = system: Hs-578T
HOP-92 = system: HOP-92
DU-145 = system: DU-145
BT-549 = system: BT-549
HCT-116 = system: HCT-116
A549 = system: A549
SF-268 = system: SF-268
SW-620 = system: SW-620
MCF7 = system: MCF7
U-251 = system: U-251
OVCAR-3 = system: OVCAR-3
CAKI-1 = system: CAKI-1
HT-29 = system: HT-29
SK-MEL-5 = system: SK-MEL-5
M14 = system: M14
SF-295 = system: SF-295
NCI-H522 = system: NCI-H522
UACC-62 = system: UACC-62
OVCAR-4 = system: OVCAR-4
OVCAR-8 = system: OVCAR-8
COLO 205 = system: COLO 205
HL-60 = system: HL-60
SNB-19 = system: SNB-19
MDA-N = system: MDA-N
Malme-3M = system: Malme-3M
TK-10 = system: TK-10
MDA-MB-435 = system: MDA-MB-435
IGROV-1 = system: IGROV-1
MDA-MB-231 = system: MDA-MB-231
HCC 2998 = system: HCC 2998
T47D = system: T47D
SNB-75 = system: SNB-75
NCI-H226 = system: NCI-H226

CCCCOC(=O)Nc1ccc(S(=O)(=O)Nc2c(Cl)cccc2Cl)cc1
GI50 (MOLT-4): 24.3 µM (inactive)
GI50 (CCRF-CEM): 33.6 µM (inactive)
GI50 (786-0): 31.3 µM (inactive)
GI50 (NCI/ADR-RES): 24.3 µM (inactive)
GI50 (EKVX): 26.6 µM (inactive)
GI50 (K562): 19.6 µM (inactive)
GI50 (SK-MEL-2): 26.9 µM (inactive)
GI50 (ACHN): 30.2 µM (inactive)
GI50 (KM12): 36.1 µM (inactive)
GI50 (LOX IMVI): 30.1 µM (inactive)
GI50 (SN12C): 34.1 µM (inactive)
GI50 (SF-539): 29.4 µM (inactive)
GI50 (PC-3): 43.3 µM (inactive)
GI50 (SR): 21.4 µM (inactive)
GI50 (HOP-62): 49 µM (inactive)
GI50 (UO-31): 25.6 µM (inactive)
GI50 (OVCAR-5): 42 µM (inactive)
GI50 (RPMI-8226): 17.1 µM (inactive)
GI50 (UACC-257): 35.6 µM (inactive)
GI50 (NCI-H23): 40.9 µM (inactive)
GI50 (SK-OV-3): 25.2 µM (inactive)
GI50 (HCT-15): 26.7 µM
GI50 (A498): 11.1 µM (inactive)
GI50 (RXF 393): 36.9 µM (inactive)
GI50 (SK-MEL-28): 24.4 µM (inactive)
GI50 (NCI-H460): 31.1 µM (inactive)
GI50 (Hs-578T): 43 µM (inactive)
GI50 (HOP-92): 24.2 µM (inactive)
GI50 (DU-145): 38.9 µM (inactive)
GI50 (BT-549): 17.7 µM (inactive)
GI50 (HCT-116): 26.5 µM (inactive)
GI50 (A549): 37.4 µM (inactive)
GI50 (SF-268): 36.6 µM (inactive)
GI50 (SW-620): 24.4 µM (inactive)
GI50 (MCF7): 30.8 µM (inactive)
GI50 (U-251): 36.1 µM (inactive)
GI50 (OVCAR-3): 26.3 µM (inactive)
GI50 (CAKI-1): 25.6 µM (inactive)
GI50 (HT-29): 14.5 µM (inactive)
GI50 (SK-MEL-5): 14.1 µM (inactive)
GI50 (M14): 43 µM (inactive)
GI50 (SF-295): 32.3 µM (inactive)
GI50 (NCI-H522): 42.1 µM (inactive)
GI50 (UACC-62): 21.2 µM (inactive)
GI50 (OVCAR-4): 12.1 µM (inactive)
GI50 (OVCAR-8): 22.3 µM (inactive)
GI50 (COLO 205): 16.1 µM (inactive)
GI50 (HL-60): 22.3 µM (inactive)
GI50 (SNB-19): 39.7 µM (inactive)
GI50 (MDA-N): 27.2 µM (inactive)
GI50 (Malme-3M): 26.9 µM (inactive)
GI50 (TK-10): 36.6 µM (inactive)
GI50 (MDA-MB-435): 26.3 µM (inactive)
GI50 (IGROV-1): 30.4 µM (inactive)
GI50 (MDA-MB-231): 25.1 µM (inactive)
GI50 (HCC 2998): 23.9 µM (inactive)
GI50 (T47D): 25.7 µM (inactive)

COC12OC3(C4OC41)C(C(=O)O[C@H]3CO[Si](C)(C)C(C)(C)C)C2C(=O)Oc1ccccc1 (stereo partly drawn)
GI50 (MOLT-4): > 100 µM (inactive)
GI50 (CCRF-CEM): 38.1 µM (inactive)
GI50 (786-0): > 100 µM (inactive)
GI50 (NCI/ADR-RES): > 100 µM (inactive)
GI50 (EKVX): > 100 µM (inactive)
GI50 (K562): > 100 µM (inactive)
GI50 (SK-MEL-2): > 100 µM (inactive)
GI50 (ACHN): > 100 µM (inactive)
GI50 (KM12): > 100 µM (inactive)
GI50 (LOX IMVI): > 100 µM (inactive)
GI50 (SN12C): > 100 µM (inactive)
GI50 (PC-3): > 100 µM (inactive)
GI50 (SR): > 100 µM (inactive)
GI50 (HOP-62): > 100 µM (inactive)
GI50 (UO-31): > 100 µM (inactive)
GI50 (OVCAR-5): > 100 µM (inactive)
GI50 (RPMI-8226): 91 µM (inactive)
GI50 (UACC-257): > 100 µM (inactive)
GI50 (NCI-H23): > 100 µM (inactive)
GI50 (SK-OV-3): > 100 µM (inactive)
GI50 (HCT-15): > 100 µM
GI50 (A498): > 100 µM (inactive)
GI50 (SK-MEL-28): > 100 µM (inactive)
GI50 (NCI-H460): > 100 µM (inactive)
GI50 (Hs-578T): > 100 µM (inactive)
GI50 (HOP-92): > 100 µM (inactive)
GI50 (DU-145): > 100 µM (inactive)
GI50 (BT-549): 0.991 µM (active)
GI50 (HCT-116): > 100 µM (inactive)
GI50 (A549): > 100 µM (inactive)
GI50 (SF-268): > 100 µM (inactive)
GI50 (SW-620): > 100 µM (inactive)
GI50 (MCF7): > 100 µM (inactive)
GI50 (U-251): > 100 µM (inactive)
GI50 (OVCAR-3): > 100 µM (inactive)
GI50 (CAKI-1): > 100 µM (inactive)
GI50 (HT-29): > 100 µM (inactive)
GI50 (SK-MEL-5): > 100 µM (inactive)
GI50 (M14): > 100 µM (inactive)
GI50 (SF-295): > 100 µM (inactive)
GI50 (NCI-H522): > 100 µM (inactive)
GI50 (UACC-62): > 100 µM (inactive)
GI50 (OVCAR-4): > 100 µM (inactive)
GI50 (OVCAR-8): > 100 µM (inactive)
GI50 (COLO 205): > 100 µM (inactive)
GI50 (SNB-75): > 100 µM (inactive)
GI50 (SNB-19): > 100 µM (inactive)
GI50 (MDA-N): > 100 µM (inactive)
GI50 (Malme-3M): 92 µM (inactive)
GI50 (TK-10): > 100 µM (inactive)
GI50 (MDA-MB-435): > 100 µM (inactive)
GI50 (IGROV-1): > 100 µM (inactive)
GI50 (MDA-MB-231): 57.3 µM (inactive)
GI50 (NCI-H226): > 100 µM (inactive)
GI50 (HCC 2998): > 100 µM (inactive)
GI50 (T47D): > 100 µM (inactive)
